Laboratory results reported in patent US7153964B2, “Pyrimidine compounds” (AstraZeneca AB, priority 2000, dated 2006).

Target: T1, CDK2 (Homo sapiens, UniProt P24941)
T1 construct: made in house; host or cells: Sf21 insect cells (stated for the CDK2/Cyclin E option; by analogy to CDK4/Cyclin D1 baculovirus co-infection)
Experiment: CDK2 inhibition assay (in vitro kinase SPA, by analogy to the CDK4 assay)
Format: biochemical
Settings: read-out: CDK2 inhibitory activity IC50
Experimental: The compounds were tested in an in vitro kinase assay in 96 well format using Scintillation Proximity Assay (SPA—obtained from Amersham) for measuring incorporation of [γ-33-P]-Adenosine Triphosphate into a test substrate (GST-Retinoblastoma). In each well was placed the compound to be tested (diluted in DMSO and water to correct concentrations) and in control wells either p16 as an inhibitor control or DMSO as a positive control.
Approximately 0.5 μl of CDK4/Cyclin D1 partially-purified enzyme (amount dependent on enzyme activity) diluted in 25 μl incubation buffer was added to each well then 20 μl of GST-Rb/ATP/ATP33 mixture (containing 0.5 μg GST-Rb and 0.2 μM ATP and 0.14 μCi [γ-33-P]-Adenosine Triphosphate), and the resulting mixture shaken gently, then incubated at room temperature for 60 minutes.
To each well was then added 150 μL stop solution containing (0.8 mg/well of Protein A-PVT SPA bead (Amersham)), 20 pM/well of Anti-Glutathione Transferase, Rabbit IgG (obtained from Molecular Probes), 61 mM EDTA and 50 mM HEPES pH 7.5 containing 0.05% sodium azide.
The plates were sealed with Topseal-S plate sealers, left for two hours then spun at 2500 rpm, 1124×g., for 5 minutes. The plates were read on a Topcount for 30 seconds per well. […]

IC50: 347 nM
Structure (SMILES): N#Cc1ccccc1Nc1nc(Nc2ccc(S(N)(=O)=O)cc2)ncc1Cl [Example 23, 2-(4-Sulphamoylanilino)-4-(2-cyanoanilino)-5-chloropyrimidine]
